Data: patent publication US11739098B2 (BRISTOL-MYERS SQUIBB COMPANY, priority 2017, dated 2023)
Counter-ions that a name gives are not always drawn.

Columns and labels:
Assay type in all cases: cell-based
[1] = target: T1, human TLR8 (Homo sapiens, UniProt Q9NR97); experiment: TLR8 inhibition reporter assay (HEK-Blue cells, SEAP reporter, R848 stimulation); conditions: HEK-Blue cells overexpressing human TLR8, SEAP reporter, R848 15.9 μM
T1 construct: host or cells: HEK-Blue cells (HEK293-derived reporter line)
T1 sequence (Q9NR97 27-1041): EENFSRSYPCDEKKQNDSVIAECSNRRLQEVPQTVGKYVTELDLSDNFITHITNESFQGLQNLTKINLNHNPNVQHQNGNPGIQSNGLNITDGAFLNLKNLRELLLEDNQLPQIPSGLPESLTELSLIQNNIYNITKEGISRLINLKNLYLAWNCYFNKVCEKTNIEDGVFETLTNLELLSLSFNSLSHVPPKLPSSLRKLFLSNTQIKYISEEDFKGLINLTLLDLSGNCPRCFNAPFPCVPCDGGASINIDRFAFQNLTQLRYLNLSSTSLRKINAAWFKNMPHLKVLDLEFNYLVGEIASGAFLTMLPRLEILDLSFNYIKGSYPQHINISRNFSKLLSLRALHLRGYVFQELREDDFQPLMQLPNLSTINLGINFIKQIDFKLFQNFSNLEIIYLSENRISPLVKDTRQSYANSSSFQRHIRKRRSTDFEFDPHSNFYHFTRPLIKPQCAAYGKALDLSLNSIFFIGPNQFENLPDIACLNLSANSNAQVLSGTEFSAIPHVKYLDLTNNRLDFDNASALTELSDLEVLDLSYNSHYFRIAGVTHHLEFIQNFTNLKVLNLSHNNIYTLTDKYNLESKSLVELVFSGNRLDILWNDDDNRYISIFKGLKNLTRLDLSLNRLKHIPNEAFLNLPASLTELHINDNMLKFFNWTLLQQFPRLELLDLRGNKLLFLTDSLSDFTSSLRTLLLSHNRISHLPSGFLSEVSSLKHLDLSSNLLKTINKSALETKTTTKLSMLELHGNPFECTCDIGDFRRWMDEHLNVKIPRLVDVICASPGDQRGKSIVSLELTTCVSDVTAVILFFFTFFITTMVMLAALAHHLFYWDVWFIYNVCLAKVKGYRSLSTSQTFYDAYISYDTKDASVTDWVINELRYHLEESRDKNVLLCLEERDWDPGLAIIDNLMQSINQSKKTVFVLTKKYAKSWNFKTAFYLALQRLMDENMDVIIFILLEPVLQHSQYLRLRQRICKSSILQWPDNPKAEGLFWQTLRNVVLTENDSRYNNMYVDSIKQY
Outline: (§1)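 Agonists (final): TLR7 gardiquimod 7.5 μM; TLR8 R848 15.9 μM; TLR9 ODN2006 5 nM. HEK-Blue reporter cells, 30 min RT compound pre-incubation, 0.05 nM–50 μM dose range, 22 h at 37 °C, colorimetric SEAP detection medium. % inhibition relative to agonist+DMSO and known-inhibitor wells.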

[2] = target: T2, human TLR9 (Homo sapiens, UniProt Q9NR96); experiment: TLR9 inhibition reporter assay (HEK-Blue cells, SEAP reporter, ODN2006 stimulation); conditions: HEK-Blue cells overexpressing human TLR9, SEAP reporter, ODN2006 5 nM
T2 construct: host or cells: HEK-Blue cells (HEK293-derived reporter line)
T2 sequence (Q9NR96 26-1032): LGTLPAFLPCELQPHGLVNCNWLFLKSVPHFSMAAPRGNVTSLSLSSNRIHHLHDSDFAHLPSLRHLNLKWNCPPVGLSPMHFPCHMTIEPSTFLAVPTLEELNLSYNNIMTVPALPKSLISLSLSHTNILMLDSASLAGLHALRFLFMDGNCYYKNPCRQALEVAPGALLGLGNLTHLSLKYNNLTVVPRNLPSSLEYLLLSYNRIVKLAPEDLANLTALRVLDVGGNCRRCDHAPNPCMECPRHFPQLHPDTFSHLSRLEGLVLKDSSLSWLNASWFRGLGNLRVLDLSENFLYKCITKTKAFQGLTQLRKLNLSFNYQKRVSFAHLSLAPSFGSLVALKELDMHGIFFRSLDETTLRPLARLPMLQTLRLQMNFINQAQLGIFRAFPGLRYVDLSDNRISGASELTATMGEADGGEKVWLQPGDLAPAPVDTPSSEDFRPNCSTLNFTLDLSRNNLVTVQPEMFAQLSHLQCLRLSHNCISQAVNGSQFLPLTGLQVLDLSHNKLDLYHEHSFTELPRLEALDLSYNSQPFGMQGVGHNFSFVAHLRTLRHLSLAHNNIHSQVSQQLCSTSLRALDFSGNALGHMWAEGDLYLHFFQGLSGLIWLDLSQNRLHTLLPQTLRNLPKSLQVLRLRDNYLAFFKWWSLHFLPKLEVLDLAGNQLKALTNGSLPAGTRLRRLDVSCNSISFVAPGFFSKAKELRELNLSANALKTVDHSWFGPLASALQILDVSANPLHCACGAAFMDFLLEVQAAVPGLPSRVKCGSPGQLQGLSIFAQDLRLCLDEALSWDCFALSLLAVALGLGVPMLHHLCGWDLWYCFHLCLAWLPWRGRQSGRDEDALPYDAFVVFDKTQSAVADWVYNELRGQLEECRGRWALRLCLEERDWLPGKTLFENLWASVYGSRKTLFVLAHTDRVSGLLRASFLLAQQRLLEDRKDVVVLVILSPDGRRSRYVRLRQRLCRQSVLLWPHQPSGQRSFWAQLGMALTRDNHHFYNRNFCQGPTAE
Outline: as §1

[3] = target: T3, human TLR7 (Homo sapiens, UniProt Q9NYK1); experiment: TLR7 inhibition reporter assay (HEK-Blue cells, SEAP reporter, gardiquimod stimulation); conditions: HEK-Blue cells overexpressing human TLR7, SEAP reporter, gardiquimod 7.5 μM
T3 construct: host or cells: HEK-Blue cells (HEK293-derived reporter line)
T3 sequence (Q9NYK1 27-1049): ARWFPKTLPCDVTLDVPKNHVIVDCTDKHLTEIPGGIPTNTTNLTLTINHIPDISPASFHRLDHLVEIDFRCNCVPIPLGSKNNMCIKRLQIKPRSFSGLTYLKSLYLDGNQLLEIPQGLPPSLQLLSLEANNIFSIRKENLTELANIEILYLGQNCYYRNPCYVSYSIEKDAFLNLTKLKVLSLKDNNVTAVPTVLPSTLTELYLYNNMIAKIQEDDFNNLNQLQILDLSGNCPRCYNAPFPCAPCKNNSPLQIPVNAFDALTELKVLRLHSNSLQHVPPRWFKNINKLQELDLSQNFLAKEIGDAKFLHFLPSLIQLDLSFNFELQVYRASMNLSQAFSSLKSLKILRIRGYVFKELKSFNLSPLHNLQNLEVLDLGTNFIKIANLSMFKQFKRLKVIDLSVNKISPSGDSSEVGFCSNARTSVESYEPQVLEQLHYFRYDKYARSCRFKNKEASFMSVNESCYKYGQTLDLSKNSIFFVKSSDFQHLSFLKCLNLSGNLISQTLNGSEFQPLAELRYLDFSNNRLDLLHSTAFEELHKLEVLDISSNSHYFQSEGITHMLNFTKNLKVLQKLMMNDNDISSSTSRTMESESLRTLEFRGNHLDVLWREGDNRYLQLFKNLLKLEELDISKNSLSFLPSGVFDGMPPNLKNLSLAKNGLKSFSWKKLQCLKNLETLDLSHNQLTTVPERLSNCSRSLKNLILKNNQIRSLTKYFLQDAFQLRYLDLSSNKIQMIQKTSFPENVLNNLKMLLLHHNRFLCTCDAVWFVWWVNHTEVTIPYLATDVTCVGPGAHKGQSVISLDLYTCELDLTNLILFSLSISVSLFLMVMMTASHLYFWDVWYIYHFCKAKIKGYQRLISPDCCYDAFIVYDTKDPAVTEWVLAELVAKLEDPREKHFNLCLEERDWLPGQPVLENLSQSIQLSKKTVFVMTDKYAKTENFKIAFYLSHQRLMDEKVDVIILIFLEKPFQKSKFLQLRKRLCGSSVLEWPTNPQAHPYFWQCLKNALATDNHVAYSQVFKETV
Outline: as §1

Row | SMILES | IC50 [1] [µM] | IC50 [2] [µM] | IC50 [3] [µM]
1 | CCc1c(-c2cnc3ncnn3c2)[nH]c2ccc(C3CCNCC3)cc12 [Example 26, 6-(3-ethyl-5-(piperidin-4-yl)-1H-indol-2-yl)-[1,2,4]triazolo[1,5-a]pyrimidine] | 0.1 to 1 | 0.1 to 1 | 0.1 to 1
2 | CN1CC(C(=O)N2CCC(c3ccc4[nH]c(-c5ccc6nccn6c5)c(CC(F)F)c4c3)CC2)CC1=O (stereo not drawn) [Example 644, 4-(4-(3-(2,2-difluoroethyl)-2-(imidazo[1,2-a]pyridin-6-yl)-1H-indol-5-yl)piperidine-1-carbonyl)-1-methylpyrrolidin-2-one] | 1 to 50 | > 50 | 0.1 to 1
3 | COc1cc(-c2[nH]c3ccc(C4CCNCC4)cc3c2C(C)C)cc2ncnn12 [Example 158, 7-(3-isopropyl-5-(piperidin-4-yl)-1H-indol-2-yl)-5-methoxy-[1,2,4]triazolo[1,5-a]pyridine] | < 0.1 | 1 to 50 | < 0.1
4 | CNC(=O)CN1CCC(c2ccc3[nH]c(-c4ccn5nccc5c4)c(C(C)C)c3c2)CC1 [Example 405, 2-(4-(3-isopropyl-2-(pyrazolo[1,5-a]pyridin-5-yl)-1H-indol-5-yl)piperidin-1-yl)-N-methylacetamide] | < 0.1 | 1 to 50 | < 0.1
5 | Cc1cc(-c2[nH]c3ccc(C4CCN(C5CCS(=O)(=O)CC5)CC4)cc3c2C(C)C)cn2ccnc12 [Example 799, 4-(4-(3-isopropyl-2-(8-methylimidazo[1,2-a]pyridin-6-yl)-1H-indol-5-yl)piperidin-1-yl)tetrahydro-2H-thiopyran 1,1-dioxide] | < 0.1 | 0.1 to 1 | < 0.1
6 | Cc1cc2cc(-c3[nH]c4ccc(C5CCN(CC(=O)N(C)C)CC5)cc4c3C(C)C)ccn2n1 [Example 323, 2-(4-(3-isopropyl-2-(2-methylpyrazolo[1,5-a]pyridin-5-yl)-1H-indol-5-yl)piperidin-1-yl)-N,N-dimethylacetamide] | 1 to 50 | 1 to 50 | 0.1 to 1
7 | CCc1c(-c2n[nH]c3ncccc23)[nH]c2ccc(C3CCNCC3)cc12 [Example 244, 3-(3-ethyl-5-(piperidin-4-yl)-1H-indol-2-yl)-1H-pyrazolo[3,4-b]pyridine] | 0.1 to 1 | 1 to 50 | 0.1 to 1
8 | Cc1c(-c2[nH]c3ccc(C4CCN(CC(C)(C)O)CC4)cc3c2C(C)C)nn2ncnc2c1C [Example 747, 1-(4-(2-(7,8-dimethyl-[1,2,4]triazolo[1,5-b]pyridazin-6-yl)-3-isopropyl-1H-indol-5-yl)piperidin-1-yl)-2-methylpropan-2-ol] | < 0.1 | 1 to 50 | < 0.1

Next, values leading:

Row | IC50 [1] [µM] | IC50 [2] [µM] | IC50 [3] [µM] | SMILES
9 | 0.1 to 1 | 1 to 50 | 0.1 to 1 | CCc1c(-c2ccnc3[nH]ncc23)[nH]c2ccc(C3CCN(Cc4ncco4)CC3)cc12 [Example 867, 2-((4-(3-ethyl-2-(1H-pyrazolo[3,4-b]pyridin-4-yl)-1H-indol-5-yl)piperidin-1-yl)methyl)oxazole]
10 | < 0.1 | 1 to 50 | < 0.1 | CC(C)c1c(-c2ccnc3[nH]ncc23)[nH]c2ccc(C3CCN(C(=O)CCn4ccnc4)CC3)cc12 [Example 642, 3-(1H-imidazol-1-yl)-1-(4-(3-isopropyl-2-(1H-pyrazolo[3,4-b]pyridin-4-yl)-1H-indol-5-yl)piperidin-1-yl)propan-1-one]
11 | < 0.1 | 0.1 to 1 | < 0.1 | CC(C)c1c(-c2ccnc3[nH]ncc23)[nH]c2ccc(C3CCN(C(=O)CN4CCN(c5ccncc5)CC4)CC3)cc12 [Example 591, 1-(4-(3-isopropyl-2-(1H-pyrazolo[3,4-b]pyridin-4-yl)-1H-indol-5-yl)piperidin-1-yl)-2-(4-(pyridin-4-yl)piperazin-1-yl)ethan-1-one]
12 | < 0.1 | 0.1 to 1 | < 0.1 | CNCCN1CCC(c2ccc3[nH]c(-c4ccnc5[nH]ncc45)c(C(C)C)c3c2)CC1 [Example 650, 2-(4-(3-isopropyl-2-(1H-pyrazolo[3,4-b]pyridin-4-yl)-1H-indol-5-yl)piperidin-1-yl)-N-methylethanamine dihydrochloride]
